Measurements published in patent US20140170210A1, “METHODS FOR TREATING IMMUNOSUPPRESSION” (TRUSTEES OF DARTMOUTH COLLEGE, priority 2011, published 2014).
Where two headings read alike, the source gives them in different places.

Assays:
[1] = biological target: T1, hACAT-2 (Homo sapiens, UniProt O75908); settings: cited from earlier work
T1 sequence (O75908 1-522): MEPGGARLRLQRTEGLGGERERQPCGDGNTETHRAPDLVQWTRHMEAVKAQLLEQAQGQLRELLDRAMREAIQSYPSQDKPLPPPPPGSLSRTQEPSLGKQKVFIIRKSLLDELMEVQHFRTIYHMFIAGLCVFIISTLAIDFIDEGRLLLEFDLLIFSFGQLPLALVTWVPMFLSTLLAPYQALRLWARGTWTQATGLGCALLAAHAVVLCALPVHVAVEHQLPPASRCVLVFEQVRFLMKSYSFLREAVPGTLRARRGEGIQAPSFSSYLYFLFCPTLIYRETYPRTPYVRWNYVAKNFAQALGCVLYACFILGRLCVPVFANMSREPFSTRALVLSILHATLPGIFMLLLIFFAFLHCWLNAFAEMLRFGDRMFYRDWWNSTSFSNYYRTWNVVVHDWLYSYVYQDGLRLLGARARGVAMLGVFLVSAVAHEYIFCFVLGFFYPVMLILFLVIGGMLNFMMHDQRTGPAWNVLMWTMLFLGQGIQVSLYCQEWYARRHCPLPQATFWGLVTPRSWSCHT

[2] = biological target: T2, ACAT1 (Homo sapiens, UniProt P35610); settings: cited from earlier work
T2 sequence (P35610 1-550): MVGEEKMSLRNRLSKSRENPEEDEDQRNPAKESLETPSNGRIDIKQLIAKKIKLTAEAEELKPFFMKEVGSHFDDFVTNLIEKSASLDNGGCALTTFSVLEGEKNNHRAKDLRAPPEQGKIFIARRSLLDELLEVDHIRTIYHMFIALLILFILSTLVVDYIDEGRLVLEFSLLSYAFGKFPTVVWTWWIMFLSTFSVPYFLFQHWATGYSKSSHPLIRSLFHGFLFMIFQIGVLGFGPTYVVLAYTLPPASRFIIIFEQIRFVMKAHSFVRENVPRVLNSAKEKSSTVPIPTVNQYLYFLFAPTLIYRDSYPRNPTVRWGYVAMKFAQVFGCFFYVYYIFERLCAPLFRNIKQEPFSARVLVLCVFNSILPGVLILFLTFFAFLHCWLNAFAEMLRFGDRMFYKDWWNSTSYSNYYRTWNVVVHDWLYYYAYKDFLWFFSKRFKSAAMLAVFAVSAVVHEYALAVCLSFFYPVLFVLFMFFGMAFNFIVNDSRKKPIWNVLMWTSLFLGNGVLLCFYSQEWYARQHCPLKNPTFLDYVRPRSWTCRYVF

[3] = biological target: T2, ACAT1; settings: cited from earlier work; remark: listed apart in the source
[4] = biological target: T1, hACAT-2; settings: cited from earlier work; remark: listed apart in the source
[5] = rats, dogs, and humans; cited from earlier work
[6] = tested on: human macrophages; settings: in vitro; cited from earlier work
[7] = tested on: coronary atherosclerosis; settings: in combination with a statin drug, patients; cited from earlier work
[8] = tested on: amyloid plaque load and cognitive deficits; settings: cited from earlier work
[9] = tested on: cholesterol ester content in various systemic tissues; settings: 4-30 mg/kg/day, small animals; cited from earlier work
[10] = tested on: WT and Acat1-/- BM cells; test: Proliferation of cultured BM cells, 3H-thymidine pulse; format: cell-based, mouse; settings: for effect on higher 3H-thymidine incorporation phenotype of Acat1-/- BM cells: 10 μM U0126, 1 μM PP2, 72 hours culture with growth factors
Method: WT and Acat1−/− BM cells were cultured in IMDM media containing 10% FBS in the presence of indicated growth factors with or without specific inhibitors as indicated for 72 hours. Concentrations of growth factors used: 100 ng/mL for stem cell factor, 6 ng/mL for IL3; 2 ng/ml for GM-CSF. Concentration of inhibitors used: 10 μM for U0126; 1 μM for PP2. Proliferation was measured after a 3 hour ^3H-thymidine pulse in intact cells. Results are means±SEM of duplicate cultures in 3 separate experiments. **P<0.01, * P<0.05 vs. WT.
For cell proliferation measurement in vivo, the manufacturer's protocol (BD Pharmingen; BrdU flow kit) was used. Age- and sex-matched mice of both genotypes were injected intraperitoneally twice, once every 12 hours, with 0.5 mg bromodeoxyuridine (BrdU)/injection/mouse. Twenty-four hours after the first injection, BM progenitor cells (LSKs, CMPs, GMPs, and MEPs) were stained and sorted as described earlier. Proliferation of each of the sorted cell populations was measured by measuring BrdU incorporation, using the BrdU flow kit (BD Pharmingen). Proliferation measurement of BM derived-myeloid cells in culture was carried out using a known method (Yvan-Charvet et al. 2010. supra). Briefly, after lysis of red blood cells from crude BM, cells were cultured in IMDM (Gibco) containing 10% fetal bovine serum (FBS) for 2 hours to remove attached cells. The unattached cells were replated for 72 hours in various conditions as described in FIG. 4. Stem cell factor, IL3, and GM-CSF were from R&D Systems. U0126, PP2, and ApoA1 were from Sigma. Squalene synthase inhibitor (SSI) compound CP-340868 was from Pfizer. Cells were pulsed with 2 μCi/mL ^3H-thymidine for 3 hours and ^3H-thymidine incorporation was monitored by using liquid scintillation counter.

[11] = biological target: T3, ACAT2 (Chlorocebus aethiops, UniProt O77759); settings: read-out: selective inhibition, ACAT2; cited from earlier work
T3 sequence (O77759 1-526): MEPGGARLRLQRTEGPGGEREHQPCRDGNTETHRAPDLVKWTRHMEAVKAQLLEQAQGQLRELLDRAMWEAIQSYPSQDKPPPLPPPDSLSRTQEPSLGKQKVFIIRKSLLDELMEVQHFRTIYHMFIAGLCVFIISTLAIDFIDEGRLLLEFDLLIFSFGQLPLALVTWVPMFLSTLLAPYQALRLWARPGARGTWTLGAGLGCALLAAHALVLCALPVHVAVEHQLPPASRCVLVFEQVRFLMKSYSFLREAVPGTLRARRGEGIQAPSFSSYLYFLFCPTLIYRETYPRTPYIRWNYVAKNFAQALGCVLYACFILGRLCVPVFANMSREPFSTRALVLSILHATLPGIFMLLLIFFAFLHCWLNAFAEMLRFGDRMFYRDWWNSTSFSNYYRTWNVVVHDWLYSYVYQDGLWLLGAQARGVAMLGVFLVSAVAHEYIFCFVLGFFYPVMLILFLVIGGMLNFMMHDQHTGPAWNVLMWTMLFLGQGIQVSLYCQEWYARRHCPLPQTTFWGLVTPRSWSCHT

[12] = tested on: ACAT1 and ACAT2; settings: cited from earlier work
[13] = tested on: atherosclerosis, familial hypercholesterolemia; settings: patients with high risk for atherosclerosis or familial hypercholesterolemia; cited from earlier work
[14] = biological target: T2, ACAT1; settings: cited from earlier work; remark: listed apart in the source
[15] = laboratory animals; cited from earlier work
[16] = tested on: mouse ACAT1; test: ACAT1 knockdown by Acat1 miRs in NIH-3T3 mouse fibroblasts; format: cell-based; settings: pre-microRNAs SEQ ID NO:5 and 6
From the text: Four different siRNA sequences (#52-#55) targeting the mouse Acat1 (also called Soat1) gene were inserted into an endogenous mouse microRNA (miR) scaffold using Invitrogen's RNAi design tool. The artificial miRs were ligated into the mammalian expression vector pcDNA6.2-GW/EmGFP-miR. […] The miRs were delivered to the cells by using standard cDNA transfection protocol. […] These two Acat1 miR sequences and the NC miR sequence were also subcloned into an rAAV backbone vector (AAV-6P-SEWB) that contained the […]. This vector contains a strong and cell-type-nonspecific promoter that expresses Acat1 miRs in any cell type where the viral genome is expressed. For identification purpose, it also coexpresses the GFP with the miRs. These three constructs were used to produce three recombinant AAV viruses. To test the efficacy and specificity of these viruses, cultured primary hippocampal neurons were treated with the NC AAV, or with AAV that expresses miR that contain siRNA Acat1 #55. Two weeks after viral infection, the effects of AAVs on cholesteryl ester biosynthesis in neurons were tested. […] One month after injection, mice were sacrificed and the ACAT1 enzyme activities in the mouse brain homogenates were analyzed by using standard ACAT enzyme activity assay in vitro.

[17] = mouse model for Alzheimer disease

For COc1ccc([C@@H](O)[C@@H](C)Oc2ccc([C@H]3O[C@H](c4ccc(O[C@H](C)[C@H](O)c5ccc6c(c5)OCO6)c(OC)c4)[C@H](C)[C@H]3C)cc2OC)cc1OC [manassantin B], the “inhibition of hACAT-2” value ([1]; at 1 mM) is listed as 32%.

For CCOC(=O)OC(=O)OCC [diethyl pyrocarbonate], the “greater activity on ACAT1 compared to ACAT-2” value [2] is listed as 4 fold.

In the case of CC(C)c1cc(C(C)C)c(CC(=O)NS(=O)(=O)Oc2c(C(C)C)cccc2C(C)C)c(C(C)C)c1 [Avasimibe], the IC50 [3] is given as 18.7 µM, the IC50 [4] is given as 19.1 µM and the safety when administered [5] is given as “safe”. For the same molecule, the “foam cell formation in macrophages” value [6] was “reduces foam cell formation”, the “efficacy to further reduce progression of coronary atherosclerosis” value [7] was “failed to demonstrate efficacy” and the “activity in a mouse model for Alzheimer's disease” value ([8]; 14.4 mg/kg/day) was “beneficial activity”. The amyloid plaque load [8, 17] was “significant decreases”, the cognitive deficits [8, 17] was “reduction in cognitive deficits” and the “reducing cholesterol ester content in various systemic tissues” value [9] was “effective”.

For N#CC(=C(/N)Sc1ccccc1N)/C(C#N)=C(\N)Sc1ccccc1N [U0126], the “effect on higher 3H-thymidine incorporation phenotype of Acat1-/- BM cells” value [10] was “partially alleviated”.

For beauveriolide I, the IC50 [11] is given as 20 µM.

In the case of CC(C)(C)n1nc(-c2ccc(Cl)cc2)c2c(N)ncnc21 [PP2], the “effect on higher 3H-thymidine incorporation phenotype of Acat1-/- BM cells” value [10] is reported as “partially alleviated”.

In the case of CCCCCCCCN1CCc2c(C)c(CC(=O)O)c(C)c(NC(=O)C(C)(C)C)c21 [Pactimibe], the “relative potency on ACAT1 and ACAT2” value [12] is listed as “approximately equal potency” and the “efficacy as a supplement to statin treatment” value [13] is listed as “lacked efficacy”.

In the case of saucerneol B, the IC50 [14] is listed as 43 µM and the IC50 [1] is listed as 124 µM.

For “ApoA1: a cellular cholesterol efflux mediator”, the “effect on enhanced proliferation of Acat1-/- BM cells” value ([10]; ApoA1 at 50 or 100 μg/ml) was “did not diminish”.

In the case of CSc1cc(C)nc(SC)c1NC(=O)CN1CCN(CCSc2nc3ccccc3[nH]2)CC1 [K-604], the “safety for use in vivo” value [15] is listed as “safe”.

B1: #54: microRNA against mouse ACAT1, target sequence SEQ ID NO:3; pre-microRNA SEQ ID NO:5 (nucleic acid)
chain: TGCTGTCCAGTATCAGAATGAACCGGGTTTTGGCCACTGACTGACCCGGTTCACTGATACTGGA
modifications: expressed or natural sequence
For B1, the “mouse ACAT1 expression” value [16] was “decrease”.

B2: #55: microRNA against mouse ACAT1, target sequence SEQ ID NO:4; pre-microRNA SEQ ID NO:6 (nucleic acid)
chain: TGCTGTACAGTAGGAGTCCTTGGGTAGTTTTGGCCACTGACTGACTACCCAAGCTCCTACTGTA
modifications: expressed or natural sequence
With B2 the “mouse ACAT1 expression” value [16] was “decrease”.
